Values after ≈ are worked out from the molar mass of the structure shown. Read-outs that look alike come from different tables or passages of the source.
Legend:
[1] = tested on: Salmonella typhosa ATCC 9992; assay: Minimum growth inhibitory concentration by agar dilution method; assay type: cell-based; conditions: for Minimum growth inhibitory concentration: Salmonella typhosa ATCC 9992, agar dilution method at pH 7.0
various microorganisms = assay: Growth inhibition of various microorganisms / antibacterial activity (in words); assay type: cell-based; conditions: statement in words
Text: (§1) Minimum growth inhibitory concentration (μg/ml)
(§2) by agar dilution method at pH 7.0

[2] = tested on: Klebsiella pneumoniae ATCC 10031; assay: Minimum growth inhibitory concentration by agar dilution method; assay type: cell-based; conditions: for Minimum growth inhibitory concentration: Klebsiella pneumoniae ATCC 10031, agar dilution method at pH 7.0
Text: as §1, §2

[3] = tested on: Pseudomonas cepacia ATCC 25608; assay: as above; assay type: cell-based; conditions: for Minimum growth inhibitory concentration: Pseudomonas cepacia ATCC 25608, agar dilution method at pH 7.0; for MIC: Burkholderia cepacia, ATCC25608, pH 7, read-out: Minimum growth inhibitory concentration
Text: as §1, §2

[4] = tested on: Serratia marcescens ATCC 4003; assay: as above; assay type: cell-based; conditions: for Minimum growth inhibitory concentration: Serratia marcescens ATCC 4003, agar dilution method at pH 7.0; for MIC: Serratia marcescens, ATCC4003, pH 7, read-out: Minimum growth inhibitory concentration
Text: as §1, §2

Escherichia coli ATCC 26 = assay: as above; assay type: cell-based; conditions: for Minimum growth inhibitory concentration: Escherichia coli ATCC 26, agar dilution method at pH 7.0; for MIC: Escherichia coli, ATCC26, pH 7, read-out: Minimum growth inhibitory concentration
Text: as §1, §2

[5] = tested on: Staphylococcus aureus ATCC 6538P; assay: as above; assay type: cell-based; conditions: for Minimum growth inhibitory concentration: Staphylococcus aureus ATCC 6538P; for MIC: Staphylococcus aureus, ATCC6538P
Text: as §1, §2

[6] = tested on: Shigella sonnei ATCC 9290; assay: as above; assay type: cell-based; conditions: for Minimum growth inhibitory concentration: Shigella sonnei ATCC 9290; for MIC: Shigella sonnei
Text: as §1, §2

Bacillus subtilis #10707 = assay: as above; assay type: cell-based; conditions: for Minimum growth inhibitory concentration: Bacillus subtilis #10707, agar dilution method at pH 7.0; for MIC: Bacillus subtilis, pH 7, read-out: Minimum growth inhibitory concentration
Text: as §1, §2

[7] = tested on: Proteus vulgaris ATCC 6897; assay: as above; assay type: cell-based; conditions: for Minimum growth inhibitory concentration: Proteus vulgaris ATCC 6897; for MIC: Proteus vulgaris
Text: as §1, §2

LD50 (mouse, ip.) = assay type: in vivo; conditions: in vivo, ip
Text: (§3) | LD50 (mouse, ip.) (mg/kg)

mouse = assay: LD50 (mouse, ip.); assay type: in vivo
Text: as §3

[8] = agar dilution method at pH 7.0, listed as Vb-1
[9] = agar dilution method at pH 7.0, listed as M-B
[10] = agar dilution method at pH 7.0, listed as M-D

COC1=C(C)C(=O)C2=C(C1=O)C(COC(N)=O)C1(O)C3C(CN21)N3C (stereo not drawn) [9-epi-mitomycin B]
Minimum growth inhibitory concentration ([1]; listed as Vb-1): 6.3 µg/mL | inhibiting activity against the growth of various microorganisms / antibacterial activity (various microorganisms): high inhibiting activity | Minimum growth inhibitory concentration ([2]; listed as Vb-1): < 0.024 µg/mL | Minimum growth inhibitory concentration ([3]; listed as Vb-1): 25 µg/mL | Minimum growth inhibitory concentration ([4]; listed as Vb-1): 3.1 µg/mL | Minimum growth inhibitory concentration (Escherichia coli ATCC 26; listed as Vb-1): 12.5 µg/mL | Minimum growth inhibitory concentration [5, 8]: 0.049 µg/mL | Minimum growth inhibitory concentration [6, 8]: 6.3 µg/mL | Minimum growth inhibitory concentration (Bacillus subtilis #10707; listed as Vb-1): < 0.024 µg/mL | Minimum growth inhibitory concentration [7, 8]: 0.049 µg/mL | LD50 (LD50 (mouse, ip.)): 7.5 mg/kg

CC1=C(N)C(=O)C2=C(C1=O)N1CC3C(N3C)C1(O)C2COC(N)=O (stereo not drawn) [9-epi-mitomycin D]
MIC ([1]; Salmonella enterica, pH 7, read-out: Minimum growth inhibitory concentration): > 50 µg/mL | inhibiting activity against the growth of various microorganisms / antibacterial activity (various microorganisms): high inhibiting activity | Minimum growth inhibitory concentration ([2]; listed as Va-1): 3.1 µg/mL | MIC [3]: > 50 µg/mL | MIC [4]: > 50 µg/mL | MIC ([5]; pH 7, read-out: Minimum growth inhibitory concentration, Staphylococcus aureus ATCC 6538P, agar dilution method at pH 7.0): 25 µg/mL (≈ 74.8 µM) | MIC ([6]; ATCC9290, pH 7, read-out: Minimum growth inhibitory concentration, Shigella sonnei ATCC 9290, agar dilution method at pH 7.0): > 50 µg/mL | MIC (Bacillus subtilis #10707): 6.3 µg/mL (≈ 18.8 µM) | MIC ([7]; ATCC6897, pH 7, read-out: Minimum growth inhibitory concentration, Proteus vulgaris ATCC 6897, agar dilution method at pH 7.0): 12.5 µg/mL (≈ 37.4 µM) | LD50 (mouse): 150 mg/kg

COC1=C(C)C(=O)C2=C(C1=O)C(COC(N)=O)C1(O)C3C(CN21)N3C (centres unmarked) [mitomycin B, Mitomycin B]
Minimum growth inhibitory concentration ([1]; listed as M-B): 10.0 µg/mL | Minimum growth inhibitory concentration ([2]; listed as M-B): 0.16 µg/mL | Minimum growth inhibitory concentration ([3]; listed as M-B): 10 µg/mL | Minimum growth inhibitory concentration ([4]; listed as M-B): 2.5 µg/mL | Minimum growth inhibitory concentration (Escherichia coli ATCC 26; listed as M-B): > 10 µg/mL | Minimum growth inhibitory concentration [5, 9]: 0.039 µg/mL | Minimum growth inhibitory concentration [6, 9]: 5.0 µg/mL | Minimum growth inhibitory concentration (Bacillus subtilis #10707; listed as M-B): 0.020 µg/mL | Minimum growth inhibitory concentration [7, 9]: 0.078 µg/mL | LD50 (mouse): 4.5 mg/kg

CO[C@@]12[C@H](COC(N)=O)C3=C(C(=O)C(C)=C(N)C3=O)N1C[C@@H]1N[C@@H]12 [mitomycin C, Mitomycin C]
MIC ([2]; Klebsiella pneumoniae, ATCC10031, pH 7, read-out: Minimum growth inhibitory concentration): 0.0098 µg/mL (≈ 0.0293 µM) | MIC [3]: 10 µg/mL (≈ 29.9 µM) | MIC [4]: 5 µg/mL (≈ 15 µM) | MIC (Escherichia coli ATCC 26): 10 µg/mL (≈ 29.9 µM) | MIC ([5]; pH 7, read-out: Minimum growth inhibitory concentration): 0.156 µg/mL (≈ 0.467 µM) | MIC ([6]; ATCC9290, pH 7, read-out: Minimum growth inhibitory concentration): 5 µg/mL (≈ 15 µM) | MIC (Bacillus subtilis #10707): 0.02 µg/mL (≈ 0.0598 µM) | MIC ([7]; ATCC6897, pH 7, read-out: Minimum growth inhibitory concentration): 0.078 µg/mL (≈ 0.233 µM)

CC1=C(N)C(=O)C2=C(C1=O)N1CC3C(N3C)C1(O)C2COC(N)=O (centres unmarked) [mitomycin D, 7-amino-7-demethoxy mitomycin B]
Minimum growth inhibitory concentration [1]: > 50 µg/mL | Minimum growth inhibitory concentration ([2]; listed as M-D): 6.3 µg/mL | MIC (Escherichia coli ATCC 26): > 50 µg/mL | Minimum growth inhibitory concentration [5, 10]: 50 µg/mL | Minimum growth inhibitory concentration [6, 10]: 50 µg/mL | Minimum growth inhibitory concentration (Bacillus subtilis #10707): 6.3 µg/mL | Minimum growth inhibitory concentration [7, 10]: 25 µg/mL | LD50 (mouse): 430 mg/kg
